Read-outs that look alike come from different tables or passages of the source.
Legend:
Format in all cases: in vivo
[1] = tested on: Yellow Fever Mosquito (Aedes aegypti, AEDSAE) ("YFM"); conditions: about 1 day-old larvae, 4000 ppm master solution diluted, 3 days, room temperature
Description: Certain molecules disclosed in this document were tested against YFM using procedures described in the following paragraph. In the reporting of the results, the “YFM Rating Table” was used (See Table Section).
Master plates containing 400 μg of a molecule dissolved in 100 μL of dimethyl sulfoxide (DMSO) (equivalent to a 4000 ppm solution) are used. A master plate of assembled molecules contains 15 μL per well. To this plate, 135 μL of a 90:10 water:acetone mixture is added to each well. A robot (Biomek® NXP Laboratory Automation Workstation) is programmed to dispense 15 μL aspirations from the master plate into an empty 96-well shallow plate (“daughter” plate). There are 6 reps (“daughter” plates) created per master. The created daughter plates are then immediately infested with YFM larvae.
The day before plates are to be treated, mosquito eggs are placed in Millipore water containing liver powder to begin hatching (4 g. into 400 mL). After the daughter plates are created using the robot, they are infested with 220 μL of the liver powder/larval mosquito mixture (about 1 day-old larvae). After plates are infested with mosquito larvae, a non-evaporative lid is used to cover the plate to reduce drying. Plates are held at room temperature for 3 days prior to grading. After 3 days, each well is observed and scored based on mortality.

[2] = tested on: Cabbage Looper (Trichoplusia ni, TRIPNI) ("CL"); assay: Bioassays on Cabbage Looper (CL), 128-well diet tray assay; conditions: for mortality at 50 µg/cm2: Trichoplusia ni, 168 h, read-out: CL % Control (or Mortality) rating
Description: (§1) Certain molecules disclosed in this document were tested against BAW and CEW using procedures described in the following examples. In the reporting of the results, the “BAW & CL Rating Table” was used (See Table Section).
Bioassays on CL were conducted using a 128-well diet tray assay. one to five second instar CL larvae were placed in each well (3 mL) of the diet tray that had been previously filled with 1 mL of artificial diet to which 50 μg/cm^2 of the test compound (dissolved in 50 μL of 90:10 acetone-water mixture) had been applied (to each of eight wells) and then allowed to dry. Trays were covered with a clear self-adhesive cover and held at 25° C., 14:10 light-dark for five to seven days. Percent mortality was recorded for the larvae in each well; activity in the eight wells was then averaged. The results are indicated in the table entitled “Table ABC: Biological Results” (See Table Section).

[3] = tested on: Beet Armyworm (Spodoptera exigua, LAPHEG) ("BAW"); assay: Bioassays on Beet Armyworm (BAW), 128-well diet tray assay; conditions: for mortality at 50 µg/cm2: Spodoptera exigua, 168 h, read-out: BAW % Control (or Mortality) rating
Description: as §1
Bioassays on BAW were conducted using a 128-well diet tray assay. one to five second instar BAW larvae were placed in each well (3 mL) of the diet tray that had been previously filled with 1 mL of artificial diet to which 50 μg/cm^2 of the test compound (dissolved in 50 μL of 90:10 acetone-water mixture) had been applied (to each of eight wells) and then allowed to dry. Trays were covered with a clear self-adhesive cover and held at 25° C., 14:10 light-dark for five to seven days. Percent mortality was recorded for the larvae in each well; activity in the eight wells was then averaged. The results are indicated in the table entitled “Table ABC: Biological Results” (See Table Section).

[4] = second instar BAW larvae, 50 μg/cm^2 on artificial diet, five to seven days, 25° C.

Molecule	YFM % Control (or Mortality) rating [1]	mortality at 50 µg/cm2 [2] [%]	mortality at 50 µg/cm2 [3, 4] [%]	CL % Control (or Mortality) rating ([2]; second instar CL larvae, 50 μg/cm^2 on artificial diet, five to seven days, 25° C.)	BAW % Control (or Mortality) rating [3, 4]	mortality at 50 µg/cm2 [3] [%]
O=C(Nc1ccc(-c2ncn(-c3ccc(OC(F)(F)F)cc3)n2)cc1)c1cc(-c2ccccc2)ccc1F [F48, 4-Fluoro-N-(4-(1-(4-(trifluoromethoxy)phenyl)-1H-1,2,4-triazol-3-yl)phenyl)-[1,1′-biphenyl]-3-carboxamide]	D (No activity noticed in this bioassay)	50 to 100	0			
O=C(Nc1ccc(-c2ncn(-c3ccc(OC(F)(F)F)cc3)n2)cc1)c1ccc(Cl)c(-c2ccccc2)c1 [F34, 6-Chloro-N-(4-(1-(4-(trifluoromethoxy)phenyl)-1H-1,2,4-triazol-3-yl)phenyl)-[1,1′-biphenyl]-3-carboxamide]	D (No activity noticed in this bioassay)	50 to 100	50 to 100			
CC(=O)c1ccccc1-c1cccc(C(=O)Nc2ccc(-c3ncn(-c4ccc(OC(F)(F)F)cc4)n3)cc2)c1 [F41, 2′-Acetyl-N-(4-(1-(4-(trifluoromethoxy)phenyl)-1H-1,2,4-triazol-3-yl)phenyl)-[1,1′-biphenyl]-3-carboxamide]	A (80-100)	50 to 100	50 to 100			
COc1ccc(-c2cccc(C(=O)Nc3ccc(-c4ncn(-c5ccc(OC(F)(F)F)cc5)n4)cc3)c2)c(C)c1 [F49, 4′-Methoxy-2′-methyl-N-(4-(1-(4-(trifluoromethoxy)phenyl)-1H-1,2,4-triazol-3-yl)phenyl)-[1,1′-biphenyl]-3-carboxamide]	B (More than 0-Less than 80)	50 to 100	50 to 100			
COc1ccccc1-c1cc(C(=O)Nc2ccc(-c3ncn(-c4ccc(OC(F)(F)C(F)(F)F)cc4)n3)cc2)ccc1F [F7, 6-Fluoro-2′-methoxy-N-(4-(1-(4-(perfluoroethoxy)phenyl)-1H-1,2,4-triazol-3-yl)phenyl)-[1,1′-biphenyl]-3-carboxamide]	D (No activity noticed in this bioassay)	50 to 100	50 to 100			
6-Methoxy-N-(4-(1-(4-(trifluoromethoxy)phenyl)-1H-1,2,4-triazol-3-yl)phenethyl)-[1,1′-biphenyl]-3-carboxamide [F56]	A (80-100)			A (50-100)	A (50-100)	
COc1ccccc1-c1cccc(C(=O)Nc2ccc(-c3ncn(-c4ccc(OC(F)(F)F)cc4)n3)cc2)c1 [F22, 2′-Methoxy-N-(4-(1-(4-(trifluoromethoxy)phenyl)-1H-1,2,4-triazol-3-yl)phenyl)-[1,1′-biphenyl]-3-carboxamide]	A (80-100)	50 to 100	50 to 100			
O=C(Nc1ccc(-c2ncn(-c3ccc(OC(F)(F)F)cc3)n2)cc1)c1cccc(-c2ccccc2)n1 [F27, 6-Phenyl-N-(4-(1-(4-(trifluoromethoxy)phenyl)-1H-1,2,4-triazol-3-yl)phenyl)picolinamide]	D (No activity noticed in this bioassay)	0	0 to 50			
O=C(Nc1ccc(-c2ncn(-c3ccc(OC(F)(F)F)cc3)n2)cc1)c1cc(F)cc(-c2ccccc2)c1 [F25, 5-Fluoro-N-(4-(1-(4-(trifluoromethoxy)phenyl)-1H-1,2,4-triazol-3-yl)phenyl)-[1,1′-biphenyl]-3-carboxamide]	D (No activity noticed in this bioassay)	50 to 100				50 to 100
O=C(Nc1ccc(-c2ncn(-c3ccc(C(F)(F)F)cc3)n2)cc1)c1ccc(F)c(-c2ccccc2)c1 [F62, 6-Fluoro-N-(4-(1-(4-(trifluoromethyl)phenyl)-1H-1,2,4-triazol-3-yl)phenyl)-[1,1′-biphenyl]-3-carboxamide]	B (More than 0-Less than 80)	50 to 100	50 to 100			
COc1ccccc1-c1cc(C(=O)N(CC2CC2)c2ccc(-c3ncn(-c4ccc(OC(F)(F)F)cc4)n3)cc2)ccc1F [F66, N-(cyclopropylmethyl)-6-fluoro-2′-methoxy-N-(4-(1-(4-(trifluoromethoxy)phenyl)-1H-1,2,4-triazol-3-yl)phenyl)-[1,1′-biphenyl]-3-carboxamide]	D (No activity noticed in this bioassay)	50 to 100	50 to 100			
CCCN(C(=O)c1ccc(F)c(-c2ccccc2OC)c1)c1ccc(-c2ncn(-c3ccc(OC(F)(F)F)cc3)n2)cc1 [F65, 6-Fluoro-2′-methoxy-N-propyl-N-(4-(1-(4-(trifluoromethoxy)phenyl)-1H-1,2,4-triazol-3-yl)phenyl)-[1,1′-biphenyl]-3-carboxamide]	D (No activity noticed in this bioassay)	50 to 100	50 to 100			
Cc1cccc(C)c1-c1cccc(C(=S)Nc2ccc(-c3ncn(-c4ccc(OC(F)(F)F)cc4)n3)cc2)c1 [F46, 2′,6′-dimethyl-N-(4-(1-(4-(trifluoromethoxy)phenyl)-1H-1,2,4-triazol-3-yl)phenyl)-[1,1′-biphenyl]-3-carbothioamide]	D (No activity noticed in this bioassay)	0	0 to 50			
CN(C)c1ccccc1-c1cccc(C(=O)Nc2ccc(-c3ncn(-c4ccc(OC(F)(F)F)cc4)n3)cc2)c1 [F10, 2′-(Dimethylamino)-N-(4-(1-(4-(trifluoromethoxy)phenyl)-1H-1,2,4-triazol-3-yl)phenyl)-[1,1′-biphenyl]-3-carboxamide]	B (More than 0-Less than 80)	50 to 100	50 to 100			
Cc1ccccc1-c1cc(C(=O)Nc2ccc(-c3ncn(-c4ccc(OC(F)(F)F)cc4)n3)cc2)ccc1Cl [F32, 6-Chloro-2′-methyl-N-(4-(1-(4-(trifluoromethoxy)phenyl)-1H-1,2,4-triazol-3-yl)phenyl)-[1,1′-biphenyl]-3-carboxamide]	D (No activity noticed in this bioassay)	50 to 100	0			
COc1ccccc1-c1cccc(C(=O)NCCc2ccc(-c3ncn(-c4ccc(OC(F)(F)F)cc4)n3)cc2)c1 [F50, 2′-methoxy-N-(4-(1-(4-(trifluoromethoxy)phenyl)-1H-1,2,4-triazol-3-yl)phenethyl)-[1,1′-biphenyl]-3-carboxamide]	D (No activity noticed in this bioassay)	50 to 100	50 to 100			
O=C(Nc1ccc(-c2ncn(-c3ccc(OC(F)(F)C(F)(F)F)cc3)n2)cc1)c1cccc(-c2ccccc2OC(F)(F)F)c1 [F36, N-(4-(1-(4-(Perfluoroethoxy)phenyl)-1H-1,2,4-triazol-3-yl)phenyl)-2′-(trifluoromethoxy)-[1,1′-biphenyl]-3-carboxamide]	D (No activity noticed in this bioassay)	50 to 100	0			
O=C(Nc1ccc(-c2ncn(-c3ccc(OC(F)(F)F)cc3)n2)cc1)c1cccc(-c2ccccc2Cl)c1 [F30, 2′-Chloro-N-(4-(1-(4-(trifluoromethoxy)phenyl)-1H-1,2,4-triazol-3-yl)phenyl)-[1,1′-biphenyl]-3-carboxamide]	D (No activity noticed in this bioassay)	50 to 100	50 to 100			
COc1ccccc1-c1cc(C(=O)NCCc2ccc(-c3ncn(-c4ccc(OC(F)(F)F)cc4)n3)cc2)ccc1F [F54, 6-Fluoro-2′-methoxy-N-(4-(1-(4-(trifluoromethoxy)phenyl)-1H-1,2,4-triazol-3-yl)phenethyl)-[1,1′-biphenyl]-3-carboxamide]		50 to 100	50 to 100			
